Read-outs that look alike come from different tables or passages of the source.
Key:
[1] = molecular target: T1, wild type HCV NS3/4A 1b protease enzyme (Hepatitis C virus genotype 1b, UniProt P26663); test: biochemical; format: biochemical
T1 construct: 10× stocks of NS3/4A protease enzyme from Bioenza (Mountain View, Calif.); purchased Bioenza (Mountain View, Calif.)

[2] = molecular target: T2, A156T mutant of the HCV NS3/4A 1b protease enzyme (Hepatitis C virus genotype 1b, UniProt P26663, A1182T); test: HCV Protease FRET Assay (IC50), A156T mutant; format: biochemical
T2 construct: 10× stocks of NS3/4A protease enzyme from Bioenza (Mountain View, Calif.); purchased Bioenza (Mountain View, Calif.)
Experimental: HCV Protease FRET Assay for Wild Type and Mutated NS3/4A 1b Enzymes (IC50)
The protocol is a modified FRET-based assay (v—02) from In Vitro Resistance Studies of HCV Serine Protease Inhibitors, 2004, JBC, vol. 279, No. 17, pp 17508-17514.
10× stocks of NS3/4A protease enzyme from Bioenza (Mountain View, Calif.) and 1.13× 5-FAM/QXL™ 520 FRET peptide substrate from Anaspec (San Jose, Calif.) were prepared in 50 mM HEPES, pH 7.8, 100 mM NaCl, 5 mM DTT and 20% glycerol. 5 μL of each enzyme were pre-incubated in a Corning (#3573) 384-well, black, non-treated microtiter plate (Corning, N.Y.) for 30 min at 25° C. with a 0.5 μL volume of 50% DMSO and serially diluted compounds prepared in 50% DMSO. Protease reactions were started with the addition of 45 μL of the FRET substrate and monitored for 120 minutes at λex487/λem514 through Quad^4 monochromoters in a Synergy^4 plate reader from BioTek (Winooski, Vt.). At the conclusion of each assay, progress curves from each well were examined for linear reaction kinetics and fit statistics (R^2, absolute sum of squares). Initial velocity (0 minutes to 30+ minutes) from each reaction was determined from the slope of a plot of relative fluorescence units vs time (minutes) and then plotted against inhibitor concentration to estimate IC50 from log[Inhibitor] vs Response, Variable Slope model in GraphPad Prism from GraphPad Software (San Diego, Calif.).
The compound numbers correspond to the compound numbers in Table 3. […] ;

[3] = molecular target: T3, D168A mutant of the HCV NS3/4A 1b protease enzyme (Hepatitis C virus genotype 1b, UniProt P26663, D1194A); test: HCV Protease FRET Assay (IC50), D168A mutant; format: biochemical
T3 construct: 10× stocks of NS3/4A protease enzyme from Bioenza (Mountain View, Calif.); purchased Bioenza (Mountain View, Calif.)

[4] = test system: HCV RNA replicon in cell line ET (luc-ubi-neo/ET), human Huh7 hepatoma; test: Method A: HCV RNA replicon antiviral assay (luciferase, ET cell line); format: cell-based, Hepatitis C virus
Procedure, shortened: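 ET replicon cells (Huh7 carrying luciferase-reporter HCV replicon) plated at 5×10^3 cells/well and exposed 72 hr to six 3-fold drug concentrations in DMEM/5% FBS. Replicon luciferase gave EC50/EC90; CytoTox-1 cell counts gave IC50 (viability); […]. Interferon alpha-2b served as positive control.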

[5] = test system: cell line ET (luc-ubi-neo/ET), human Huh7 hepatoma cell line; test: Method A: cytotoxicity in ET replicon cells (CytoTox-1); format: cell-based; conditions: concentration decreasing cell viability by 50%, 72 hr
Experimental: The compounds were assayed to evaluate the antiviral activity and cytotoxicity of compounds in vitro using HCV RNA replicons. This assay used the cell line ET (luc-ubi-neo/ET), which is a human Huh7 hepatoma cell line that contains an HCV RNA replicon with a stable luciferase (Luc) reporter and three cell culture-adaptive mutations. […]
The ET cell line was grown in Dulbecco's modified essential media (DMEM), 10% fetal bovine serum (FBS), 1% penicillin-streptomycin (pen-strep), 1% glutamine, 250 μg/ml G418 in a 5% CO2 incubator at 37° C. All cell culture reagents were obtained from Mediatech (Manassas, Va.). Cells were trypsinized (1% trypsin:EDTA) and plated out at 5×10^3 cells/well in white 96-well assay plates (Costar) dedicated to cell number (cytotoxicity) or antiviral activity assessments. Drugs were added at six 3-fold concentrations each and the assay was run in DMEM, 5% FBS, 1% pen-strep, 1% glutamine. Human interferon alpha-2b (PBL Biolabs, New Brunswick, N.J.) was included in each run as a positive control compound. Cells were processed 72 hr post drug addition when the cells are still subconfluent. Antiviral activity was measured by analyzing replicon-derived luciferase activity using the Steady-Glo Luciferase Assay System (Promega, Madison, Wis.) according to manufacturer's instruction. The number of cells in each well was determined by CytoTox-1 reagent (Promega). […].

[6] = molecular target: T1, wild type HCV NS3/4A 1b protease enzyme; test: HCV Protease FRET Assay (IC50_APP), wild type; format: biochemical; conditions: read-out: IC50_APP, WT; apparent IC50, wild type NS3/4A 1b
[7] = molecular target: T2, A156T mutant of the HCV NS3/4A 1b protease enzyme; test: HCV Protease FRET Assay (IC50_APP), A156T mutant; format: biochemical; conditions: read-out: IC50_APP, HCV A156T; apparent IC50, A156T mutant
[8] = molecular target: T3, D168A mutant of the HCV NS3/4A 1b protease enzyme; test: HCV Protease FRET Assay (IC50_APP), D168A mutant; format: biochemical
[9] = read-out: Inhibition, WT; WT enzyme, FRET assay
[10] = read-out: Inhibition, HCV A156T; A156T enzyme, FRET assay
[11] = read-out: Inhibition, HCV D168A; D168A enzyme, FRET assay
[12] = Hepatitis C virus, Huh-7, assay described in Example 22
[13] = Hepatitis C virus, Huh-7, Replicon, assay of Example 22, 72 hr, read-out: Inhibition, Replicon
[14] = Hepatitis C virus, Huh-7, assay described in Example 22, read-out: Replicon (IC50)

Compound	IC50 [1, 9]	IC50 [2, 10]	IC50 [3, 11]	IC90 [4, 12]	IC50 [4, 13]	IC50 [4, 14]	Inhibition, Cytotoxicity [5]	IC50 [6]	IC50 [7]	IC50 ([8]; read-out: IC50_APP, HCV D168A; apparent IC50, D168A mutant)	IC50 ([8]; apparent IC50, D168A mutant; read-out: IC50_APP, HCV D168A)	IC50 ([1]; WT enzyme, FRET assay; read-out: Inhibition, WT)	IC50 ([2]; A156T enzyme, FRET assay; read-out: Inhibition, HCV A156T)	IC50 ([3]; D168A enzyme, FRET assay; read-out: Inhibition, HCV D168A)	IC50 ([4]; Replicon, assay of Example 22, 72 hr, read-out: Inhibition, Replicon)
C=C[C@@H]1C[C@]1(NC(=O)[C@@H]1C[C@@H](Oc2cc(-c3ccccc3)nc3cc(OC)ccc23)CN1C(=O)[C@H](CCNC(=O)CCl)NC(=O)OC(C)(C)C)C(=O)NS(=O)(=O)c1ccccc1 [Compound I-4, (2S)-2-[[(1,1-dimethylethoxy)carbonyl]amino]-4-(chloroacetyl)amino-butanoyl-(4R)-4-[(7-methoxy-2-phenyl-4-quinolinyl)oxy]-L-prolyl-1-amino-2-ethenyl-N-(phenylsulfonyl)-(1R,2S)-cyclopropanecarboxamide]	< 10 nM	10 to 100 nM	10 to 100 nM	100 to 1000 nM	10 to 100 nM	10 to 100 nM	D (IC50>1000 nM and <10,000 nM)	< 10 nM	100 to 1000 nM	100 to 1000 nM	–	–	–	–	–
C=C[C@@H]1C[C@]1(NC(=O)[C@@H]1C[C@@H](Oc2cc(-c3ccccc3)nc3cc(OC)ccc23)CN1C(=O)[C@H](CNC(=O)/C=C/CN(C)C)NC(=O)OC(C)(C)C)C(=O)NS(=O)(=O)c1ccccc1 [Compound I-5, N-[(1,1-dimethylethoxy)carbonyl]-3-[(4-dimethylamino-2-butenoyl)amino]-L-alanyl-(4R)-4-[(7-methoxy-2-phenyl-4-quinolinyl)oxy]-L-prolyl-1-amino-2-ethenyl-N-(phenylsulfonyl)-(1R,2S)-cyclopropanecarboxamide]	< 10 nM	1000 to 10000 nM	1000 to 10000 nM	–	1000 to 10000 nM	–	E (IC50≧10,000 nM)	–	–	–	–	–	–	–	–
C=CC(=O)NCC[C@H](NC(=O)OC(C)(C)C)C(=O)N1C[C@H](Oc2cc(-c3ccccc3)nc3cc(OC)ccc23)C[C@H]1C(=O)N[C@]1(C(=O)NS(=O)(=O)c2ccccc2)C[C@H]1C=C [Compound I-8, (2S)-2-[[(1,1-dimethylethoxy)carbonyl]amino]-4-(2-propenoyl)amino-butanoyl-(4R)-4-[(7-methoxy-2-phenyl-4-quinolinyl)oxy]-L-prolyl-1-amino-2-ethenyl-N-(phenylsulfonyl)-(1R,2S)-cyclopropanecarboxamide]	< 10 nM	10 to 100 nM	10 to 100 nM	–	100 to 1000 nM	–	D (IC50>1000 nM and <10,000 nM)	–	–	–	–	–	–	–	–
C=C[C@@H]1C[C@]1(NC(=O)[C@@H]1C[C@@H](Oc2cc(-c3ccccc3)nc3cc(OC)ccc23)CN1C(=O)[C@H](Cn1sc2ccccc2c1=O)NC(=O)OC(C)(C)C)C(=O)NS(=O)(=O)c1ccccc1 [Compound I-10, N-[(1,1-dimethylethoxy)carbonyl]-3-(benzoisothiazolin-3-one-2-yl)-L-alanyl-(4R)-4-[(7-methoxy-2-phenyl-4-quinolinyl)oxy]-L-prolyl-1-amino-2-ethenyl-N-(phenylsulfonyl)-(1R,2S)-cyclopropanecarboxamide]	< 10 nM	10 to 100 nM	10 to 100 nM	–	100 to 1000 nM	–	D (IC50>1000 nM and <10,000 nM)	–	–	–	–	–	–	–	–
C=C[C@@H]1C[C@]1(NC(=O)[C@@H]1C[C@@H](Oc2cc(-c3ccccc3)nc3cc(OC)ccc23)CN1C(=O)[C@H](CCNC(=O)C(C)Br)NC(=O)OC(C)(C)C)C(=O)NS(=O)(=O)c1ccccc1 (some centres unmarked) [Compound I-20]	< 10 nM	100 to 1000 nM	100 to 1000 nM	–	100 to 1000 nM	–	D (IC50>1000 nM and <10,000 nM)	–	–	–	–	–	–	–	–
C=C[C@@H]1C[C@]1(NC(=O)[C@@H]1C[C@@H](Oc2cc(-c3ccccc3)nc3cc(OC)ccc23)CN1C(=O)[C@H](CNC(=O)C(Cl)c1ccccc1)NC(=O)OC(C)(C)C)C(=O)NS(=O)(=O)c1ccccc1 (stereo partly drawn) [Compound I-23, tert-butyl(S)-3-(2-chloro-2-phenylacetamido)-1-((2S,4R)-4-(7-methoxy-2-phenylquinolin-4-yloxy)-2-((1R,2S)-1-(phenylsulfonylcarbamoyl)-2-vinylcyclopropylcarbamoyl)pyrrolidin-1-yl)-1-oxopropan-2-ylcarbamate]	< 10 nM	1000 to 10000 nM	100 to 1000 nM	–	100 to 1000 nM	–	D (IC50>1000 nM and <10,000 nM)	–	–	–	–	–	–	–	–
C=C[C@@H]1C[C@]1(NC(=O)[C@@H]1C[C@@H](Oc2cc(-c3ccccc3)nc3cc(OC)ccc23)CN1C(=O)[C@H](CN(C)C(=O)CCl)NC(=O)OC(C)(C)C)C(=O)NS(=O)(=O)c1ccccc1 [Compound I-29, tert-butyl-(S)-3-(2-chloro-N-methylacetamido)-1-((2S,4R)-4-(7-methoxy-2-phenylquinolin-4-yloxy)-2-((1R,2S)-1-(phenylsulfonylcarbamoyl)-2-vinylcyclopropylcarbamoyl)pyrrolidin-1-yl)-1-oxopropan-2-ylcarbamate]	< 10 nM	< 10 nM	< 10 nM	–	10 to 100 nM	–	C (IC50>100 nM and ≦1000 nM)	–	–	–	–	–	–	–	–
C#CCN(C)C(=O)CCCC(=O)N[C@@H](CNC(=O)C=C)C(=O)N1C[C@H](Oc2cc(-c3ccccc3)nc3cc(OC)ccc23)C[C@H]1C(=O)N[C@]1(C(=O)NS(=O)(=O)c2ccccc2)C[C@H]1C=C [Compound I-42]	< 10 nM	100 to 1000 nM	–	> 10000 nM	> 10000 nM	> 10000 nM	E (IC50≧10,000 nM)	10 to 100 nM	–	–	100 to 1000 nM	–	–	–	–
C=C[C@@H]1C[C@]1(NC(=O)[C@@H]1C[C@@H](Oc2cc(-c3ccccc3)nc3cc(OC)ccc23)CN1C(=O)[C@H](CNC(=O)CC)NC(=O)OC(C)(C)C)C(=O)NS(=O)(=O)c1ccccc1 [I^R-3, N-[(1,1-dimethylethoxy)carbonyl]-3-[(propionyl)amino]-L-alanyl-(4R)-4-[(7-methoxy-2-phenyl-4-quinolinyl)oxy]-L-prolyl-1-amino-2-ethenyl-N-(phenylsulfonyl)-(1R,2S)-cyclopropanecarboxamide]	–	–	–	–	–	–	E (IC50≧10,000 nM)	–	–	–	–	< 10 nM	10 to 100 nM	100 to 1000 nM	1000 to 10000 nM

— patent US8309685B2 (Celgene Avilomics Research, Inc., priority 2007, dated 2012)
